In data set [1] the test system is Mus musculus. Put plainly: Central serotoninmimetic activity in CF mouse assessed as induction of head twitches at 60 mg/kg, ip after 30 mins in presence of xylamidine. Format: functional, organism-based. Details: dose 60 mg/kg.
A short description of data set [2]: Peripheral serotoninmimetic activity in Charles River rat uterus assessed as uterine contraction measured as tension developed at 1 ug/ml relative to methacholine. Format: ADME, tissue-based.
Data set [3] can be described thus: Peripheral serotoninmimetic activity in Charles River rat uterus assessed as uterine contraction measured as tension developed at 10 ug/ml. Format: ADME, tissue-based.
The nature of data set [4]: Peripheral serotoninmimetic activity in Charles River rat uterus assessed as uterine contraction measured as tension developed at 20 ug/ml. Format: ADME, tissue-based.
Data set [5] is described as follows: Peripheral serotoninmimetic activity in Charles River rat uterus assessed as uterine contraction. Format: ADME, tissue-based.
Data set [6] can be described thus: Peripheral serotoninmimetic activity in Charles River rat uterus assessed as uterine contraction measured as tension developed at 1 ug/ml. Format: ADME, tissue-based.
Data set [7] in a line: Ratio of serotonin EC50 to compound EC50 for peripheral serotoninmimetic activity in Charles River rat uterus. Format: ADME, tissue-based.
The nature of data set [8]: Peripheral serotoninmimetic activity in Charles River rat uterus assessed as uterine contraction measured as tension developed at 10 ug/ml in presence of hydroxindasol. Format: ADME, tissue-based.
For data set [9], the system named is Mus musculus. Nature of the data set: Central serotoninmimetic activity in CF mouse assessed as induction of head twitches at 30 mg/kg, ip after 60 mins. Format: functional, organism-based. Also on record: dose 30 mg/kg.
Data set [10] is described as follows: Peripheral serotoninmimetic activity in Charles River rat uterus assessed as uterine contraction measured as tension developed at 10 ug/ml in presence of methylsergide. Format: ADME, tissue-based.
Data set [11] relates to Mus musculus. Put plainly: Central serotoninmimetic activity in CF mouse assessed as induction of head twitches at 10 mg/kg, ip after 30 mins in presence of xylamidine. Format: functional, organism-based. Details: dose 10 mg/kg.
Data set [12] concerns Mus musculus. Nature of the data set: Central serotoninmimetic activity in CF mouse assessed as induction of head twitches at 10 mg/kg, ip after 30 to 60 mins in presence of cyproheptadine. Also on record: dose 10 mg/kg. Format: functional, organism-based.
The nature of data set [13]: Peripheral serotoninmimetic activity in Charles River rat uterus assessed as uterine contraction measured as tension developed at 5 ug/ml relative to methacholine. Format: ADME, tissue-based.
The subject of data set [14] is Mus musculus. Put plainly: Central serotoninmimetic activity in CF mouse assessed as induction of head twitches at 10 mg/kg, ip after 30 to 60 mins in presence of methergoline. Format: functional, organism-based. Also on record: dose 10 mg/kg.
A short description of data set [15]: Peripheral serotoninmimetic activity in Charles River rat uterus assessed as uterine contraction measured as tension developed at 5 ug/ml. Format: ADME, tissue-based.
The nature of data set [16]: Peripheral serotoninmimetic activity in Charles River rat uterus assessed as uterine contraction measured as tension developed at 10 ug/ml relative to methacholine. Format: ADME, tissue-based.
Data set [17] can be described thus: Peripheral serotoninmimetic activity in Charles River rat uterus assessed as uterine contraction measured as tension developed at 0.1 ug/ml. Format: ADME, tissue-based.
A short description of data set [18]: Peripheral serotoninmimetic activity in Charles River rat uterus assessed as uterine contraction measured as tension developed at 0.5 ug/ml relative to methacholine. Format: ADME, tissue-based.
A short description of data set [19]: Peripheral serotoninmimetic activity in Charles River rat uterus assessed as uterine contraction measured as tension developed at 0.5 ug/ml. Format: ADME, tissue-based.
In data set [20] the test system is Mus musculus. Nature of the data set: Central serotoninmimetic activity in CF mouse assessed as induction of head twitches at 6 mg/kg, ip after 60 mins. Format: functional, organism-based. Also on record: dose 6 mg/kg.
Data set [21] in a line: Peripheral serotoninmimetic activity in Charles River rat uterus assessed as uterine contraction measured as tension developed at 0.01 ug/ml. Format: ADME, tissue-based.
The nature of data set [22]: Peripheral serotoninmimetic activity in Charles River rat uterus assessed as uterine contraction measured as tension developed at 0.001 ug/ml. Format: ADME, tissue-based.
Data set [23] can be described thus: Peripheral serotoninmimetic activity in Charles River rat uterus assessed as uterine contraction measured as tension developed at 0.00075 ug/ml. Format: ADME, tissue-based.
Data set [24] can be described thus: Peripheral serotoninmimetic activity in Charles River rat uterus assessed as uterine contraction measured as tension developed at 0.01 ug/ml in presence of methylsergide. Format: ADME, tissue-based.
The nature of data set [25]: Peripheral serotoninmimetic activity in Charles River rat uterus assessed as uterine contraction measured as tension developed at 0.05 ug/ml. Format: ADME, tissue-based.
The nature of data set [26]: Peripheral serotoninmimetic activity in Charles River rat uterus assessed as uterine contraction measured as tension developed at 0.01 ug/ml relative to methacholine. Format: ADME, tissue-based.
A short description of data set [27]: Peripheral serotoninmimetic activity in Charles River rat uterus assessed as uterine contraction measured as tension developed at 0.005 ug/ml. Format: ADME, tissue-based.
The nature of data set [28]: Peripheral serotoninmimetic activity in Charles River rat uterus assessed as uterine contraction measured as tension developed at 0.00075 ug/ml relative to methacholine. Format: ADME, tissue-based.
Data set [29] in a line: Peripheral serotoninmimetic activity in Charles River rat uterus assessed as uterine contraction measured as tension developed at 0.00050 ug/ml. Format: ADME, tissue-based.
Data set [30] can be described thus: Peripheral serotoninmimetic activity in Charles River rat uterus assessed as uterine contraction measured as tension developed at 0.001 ug/ml relative to methacholine. Format: ADME, tissue-based.
Data set [31] in a line: Peripheral serotoninmimetic activity in Charles River rat uterus assessed as uterine contraction measured as tension developed at 0.005 ug/ml relative to methacholine. Format: ADME, tissue-based.
Data set [32] in a line: Peripheral serotoninmimetic activity in Charles River rat uterus assessed as uterine contraction measured as tension developed at 0.01 ug/ml in presence of hydroxindasol. Format: ADME, tissue-based.
A short description of data set [33]: Peripheral serotoninmimetic activity in Charles River rat uterus assessed as uterine contraction measured as tension developed at 0.00050 ug/ml relative to methacholine. Format: ADME, tissue-based.

≈ marks a conversion by molar mass, not a printed value. Calls of active or inactive are those of the source. No cut-off for these calls is given here.

The values below come from ChEMBL document CHEMBL3244102, “Piperazinylpyrazines with central serotoninmimetic activity” (J Med Chem, 1978).

As a reminder, the Emax is the maximal effect, on the per cent scale that the assay sets. Usually EC50 stands for the concentration giving half of the maximal effect. Take `Cl.Clc1cncc(N2CCNCC2)n1`: the result in the data set on Mus musculus [1], with Mus musculus [12] and with Mus musculus [14] was inactive. In addition, the Emax in data set [2] was 15%; in data set [13], 80%; in data set [16], 86%; in data set [18], 10%. Also, the Activity in data set [3] was 2.28 g; in [4], 2.42 g; in data set [6], 0.4 g; in data set [8], “Non-toxic”; in data set [10], “Non-toxic”; in data set [15], 2.12 g. Besides, the Activity in [17] was 0 g; in [19], 0.27 g. Also, in data set [5], the EC50 was found to be 2.411 µg/mL. The “Ratio EC50” value in data set [7] worked out at 300. Moreover, the outcome with Mus musculus [9], in the data set on Mus musculus [11] and with Mus musculus [20] was Active.

For `Cc1cncc(N2CCNCC2)n1`, the outcome in the data set on Mus musculus [9] and with Mus musculus [20] was Active.

Take `c1ccc2nc(N3CCNCC3)ccc2c1`: the outcome in the data set on Mus musculus [9] and with Mus musculus [20] was inactive.

`CC(=O)OC(C)C[N+](C)(C)C` (stereo unspecified) [METHACHOLINE]: the Activity in [6] stood at 2.65 g.

Take `c1ccc(-c2cnc(N3CCNCC3)cn2)cc1`: the outcome in the data set with Mus musculus [9] and in the data set on Mus musculus [20] was inactive.

For `Clc1cncc(N2CCN(c3cncc(Cl)n3)CC2)n1`, the result in the data set with Mus musculus [20] was inactive.

As to `NCCc1c[nH]c2ccc(O)cc12` [SEROTONIN], the Activity is listed as 3.08 g in data set [21]; 2.32 g in [22]; 1.23 g in [23]; “Non-toxic” in [24]; 3.18 g in [25]; 2.67 g in data set [27]. Also, the values for the Activity in data set [29], in data set [17] and in data set [32] were 0.22 g, 3.2 g and “Non-toxic”, respectively. The concentration giving a half-maximal response (EC50) in data set [5] was 0.0083 µg/mL (≈ 0.0471 µM). Moreover, the Emax in [26] was found to be 92%; in [28], 37%; in data set [30], 70%; in [31] it was 80%; in data set [33], 7%.

Turning to `N#Cc1cncc(N2CCNCC2)n1`, the outcome in the data set on Mus musculus [9] and with Mus musculus [20] was inactive.

Consider `COC(=O)c1nc(Cl)c(N2CCNCC2)nc1N`, for which the result in the data set with Mus musculus [9] was inactive.

For the molecule `O=C1CN(c2cncc(Cl)n2)CCN1`, the result with Mus musculus [9] and in the data set with Mus musculus [20] was inactive.

With `CN(C)CCCN1CCN(c2cncc(Cl)n2)CC1`, the result in the data set with Mus musculus [9] and in the data set with Mus musculus [20] was inactive.

Turning to `CN(C)c1cncc(N2CCNCC2)n1`, the outcome in the data set with Mus musculus [9] and with Mus musculus [20] was inactive.

As for `CS(=O)(=O)c1cncc(N2CCNCC2)n1`, in the data set on Mus musculus [20], the outcome was inactive.

Take `Cc1nccnc1N1CCNCC1`: the outcome in the data set with Mus musculus [9] and in the data set with Mus musculus [20] was inactive.

As for `Clc1cnc(N2CCNCC2)cn1`, the result in the data set on Mus musculus [20] was inactive.

Turning to `Clc1nccnc1N1CCNCC1`, the result in the data set on Mus musculus [9] and in the data set with Mus musculus [20] was inactive.

For `c1cnc(N2CCNCC2)cn1`, the result in the data set on Mus musculus [20] was inactive.

For `c1ccc(-c2cncc(N3CCNCC3)n2)cc1`, the result with Mus musculus [9] was inactive.

Consider `Cc1cnc(C)c(N2CCNCC2)n1`, for which the result in the data set on Mus musculus [20] was inactive.
